Measurements published in ChEMBL document CHEMBL4177697, “N-Me-trichodermamide B isolated from Penicillium janthinellum, with antioxidant properties through Nrf2-mediated signaling pathway” (Bioorg Med Chem, 2017).
One block for each molecule: values may come before it. Active and inactive are the calls of the source. The calls are words filed in the database; no cut-off is given here.

How the values were obtained:
A549 = assay: Cytotoxicity against human A549 cells at 10 uM; type: functional, cell-based
HepG2 = assay: Cytotoxicity against human HepG2 cells at 10 uM; type: functional, cell-based
PC-9 = assay: Cytotoxicity against human PC9 cells at 10 uM; type: functional, cell-based
HaCaT [1] = assay: Upregulation of Nrf2 protein expression in human HaCaT cells transfected with Nrf2-siRNA at 20 uM after 6 hrs by Western blot analysis; type: functional, cell-based
HaCaT [2] = assay: Cytoprotective activity against H2O2-induced cell damage in human HaCaT cells assessed as cell survival preincubated for 20 hrs followed by H2O2 addition measured after 4 hrs by WST-8 assay; type: functional, cell-based
[3] = target: T1, MAP kinase p38 (Homo sapiens) (UniProt O15264+Q15759+Q16539+P53778); assay: Activation of MAPK p38 in human HaCaT cells assessed as upregulation of Nrf2 mRNA expression measured up to 6 hrs RT-qPCR analysis; type: cell-based
HaCaT [4] = assay: Induction of ARE promoter activity in human HaCaT cells transfected with Nrf2-siRNA at 5 to 20 uM after 6 hrs by luciferase reporter gene assay; type: functional, cell-based
[5] = target: T2, Nuclear factor erythroid 2-related factor 2 (Homo sapiens) (UniProt Q16236); assay: Activation of Nrf2 in human HaCaT cells assessed as increase in HO-1 expression level at 20 uM by Western blot analysis; type: cell-based; conditions: TDE = time-dependent effect
T2 sequence (whole entry): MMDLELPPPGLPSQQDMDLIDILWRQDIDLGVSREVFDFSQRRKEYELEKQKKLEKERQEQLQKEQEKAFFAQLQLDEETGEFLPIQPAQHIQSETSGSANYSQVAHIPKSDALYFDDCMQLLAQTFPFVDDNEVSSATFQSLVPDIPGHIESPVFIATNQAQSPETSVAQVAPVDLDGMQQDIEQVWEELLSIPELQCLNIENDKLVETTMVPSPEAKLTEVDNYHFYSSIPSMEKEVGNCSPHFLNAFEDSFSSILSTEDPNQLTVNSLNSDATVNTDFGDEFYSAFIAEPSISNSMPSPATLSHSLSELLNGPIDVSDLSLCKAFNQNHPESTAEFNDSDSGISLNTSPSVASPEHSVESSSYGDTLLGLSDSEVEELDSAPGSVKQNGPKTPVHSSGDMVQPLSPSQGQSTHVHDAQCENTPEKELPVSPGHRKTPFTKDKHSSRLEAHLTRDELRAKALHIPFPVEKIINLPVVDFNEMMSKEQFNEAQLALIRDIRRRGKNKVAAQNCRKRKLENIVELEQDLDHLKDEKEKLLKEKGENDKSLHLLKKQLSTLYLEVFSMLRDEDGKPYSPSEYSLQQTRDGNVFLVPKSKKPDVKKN

[6] = target: T1, MAP kinase p38 (Homo sapiens); assay: Induction of MAPK p38 phosphorylation in human HaCaT cells at 20 uM after 2 hrs in presence of MAPK p38 inhibitor SB239063 by Western blot analysis; type: cell-based
[7] = target: T1, MAP kinase p38 (Homo sapiens); assay: Activation of MAPK p38 in human HaCaT cells assessed as nuclear translocation of Nrf2 at 20 uM after 6 hrs by DAPI staining-based immunofluorescence microscopic method; type: cell-based
HaCaT [8] = assay: Upregulation of HO-1 protein expression in human HaCaT cells transfected with Nrf2-siRNA at 20 uM after 6 hrs by Western blot analysis; type: functional, cell-based
[9] = target: T2, Nuclear factor erythroid 2-related factor 2 (Homo sapiens); assay: Activation of Nrf2 in human HaCaT cells assessed as increase in HO-1 expression level after 12 hrs by Western blot analysis; type: cell-based
[10] = target: T1, MAP kinase p38 (Homo sapiens); assay: Induction of MAPK p38 phosphorylation in human HaCaT cells at 20 uM up to 6 hrs by Western blot analysis; type: cell-based
[11] = target: T2, Nuclear factor erythroid 2-related factor 2 (Homo sapiens); assay: Activation of Nrf2 in human HaCaT cells assessed as increase in HO-1 mRNA expression at 20 uM by Western blot analysis; type: cell-based; conditions: TDE = time-dependent effect
[12] = target: T1, MAP kinase p38 (Homo sapiens); assay: Activation of MAPK p38 in human HaCaT cells assessed as nuclear translocation of Nrf2 measured after 6 hrs by Western blot analysis; type: cell-based
[13] = target: T1, MAP kinase p38 (Homo sapiens); assay: Activation of MAPK p38 in human HaCaT cells assessed as nuclear translocation of Nrf2 at 10 uM measured after 6 hrs Western blot analysis; type: cell-based
[14] = target: T1, MAP kinase p38 (Homo sapiens); assay: Activation of MAPK p38 in human HaCaT cells assessed as upregulation of Nrf2 protein expression in nucleus at 20 uM after 6 hrs in presence of MAPK p38 inhibitor SB239063 by Western blot analysis; type: cell-based
[15] = target: T1, MAP kinase p38 (Homo sapiens); assay: Activation of MAPK p38 in human HaCaT cells assessed as upregulation of Nrf2 mRNA expression at 20 uM measured up to 6 hrs RT-qPCR analysis; type: cell-based
HaCaT [16] = assay: Cytotoxicity against human HaCaT cells assessed as reduction in cell viability at 5 to 20 uM after 24 to 48 hrs by WST-8 assay; type: cell-based
[17] = target: T2, Nuclear factor erythroid 2-related factor 2 (Homo sapiens); assay: Activation of Nrf2 in human HaCaT cells transfected with ARE-luciferase containing ARE consensus sequence assessed as Nrf2 binding to ARE at 20 uM after 6 hrs by luciferase reporter gene assay; type: cell-based
[18] = target: T2, Nuclear factor erythroid 2-related factor 2 (Homo sapiens); assay: Activation of Nrf2 in human HaCaT cells assessed as increase in HO-1 mRNA expression after 12 hrs by RT-qPCR analysis; type: cell-based
[19] = target: T2, Nuclear factor erythroid 2-related factor 2 (Homo sapiens); assay: Activation of Nrf2 in human HaCaT cells assessed as upregulation of HO-1 protein expression at 20 uM after 12 hrs in presence of MAPK p38 inhibitor SB239063 by Western blot analysis; type: cell-based

SMILES: COc1ccc2cc(NC(=O)C3=NO[C@H]4[C@H](O)C=C[C@@H](Cl)[C@@]4(O)C3)c(=O)oc2c1OC
Activity (A549): Active | Activity (HepG2): Active | Activity (PC-9): Active

Activity [3]: Dose-dependent effect | Activity [5]: Tde | Activity [6]: inactive | Activity [7]: Active | Activity [9]: Dose-dependent effect | Activity [10]: Active | Activity [11]: Tde | Activity [12]: Dose-dependent effect | Activity [13]: Active | Activity [14]: inactive | Activity [15]: Active | Activity [17]: Active | Activity [18]: Dose-dependent effect | Activity [19]: inactive
SMILES: COc1ccc2cc(N(C)C(=O)C3=NO[C@H]4[C@H](O)C=C[C@@H](Cl)[C@@]4(O)C3)c(=O)oc2c1OC
Activity (HaCaT [1]): inactive | Activity (A549): Active | Activity (HaCaT [2]): Dose-dependent effect | Activity (HaCaT [4]): inactive | Activity (HaCaT [8]): inactive | Activity (HepG2): Active | Activity (HaCaT [16]): Non-Toxic | Activity (PC-9): Active
